Source: article PMC5224880, “Discovery and Molecular Basis of a Diverse Set of Polycomb Repressive Complex 2 Inhibitors Recognition by EED” (PLoS ONE, 2017)

Columns and labels:
Assay type in all cases: biochemical
[1] = target: EZH2 (EZH2/EED/SUZ12/RBAP48/AEBP2) (Homo sapiens, UniProt O75530+Q15910); assay: HMT panel selectivity: EZH2
Description: This assay employs liquid chromatography mass spectrometry technology using peptide or nucleosome as substrate and then detects the formation of the co-product SAH [11, 25].
(§1) Note: for EZH2, EZH2/EED/SUZ12/RBAP48/AEBP2 was used in the assay; for EZH1, EZH1/EED/SUZ12/RBAP48/AEBP2 was used in the assay; for MLL, MLL/WDR5/RBBP5/ASH2L/ was use in the assay. a, H3K27me0 peptide was used as substrate for both EZH2 and EZH1 activity; b, H3K27me1 peptide was used as substrate for both EZH2 and EZH1 activity.

[2] = target: T1, SetD8 (Homo sapiens, UniProt Q9NQR1); assay: HMT panel selectivity: SetD8
T1 sequence (Q9NQR1 1-393): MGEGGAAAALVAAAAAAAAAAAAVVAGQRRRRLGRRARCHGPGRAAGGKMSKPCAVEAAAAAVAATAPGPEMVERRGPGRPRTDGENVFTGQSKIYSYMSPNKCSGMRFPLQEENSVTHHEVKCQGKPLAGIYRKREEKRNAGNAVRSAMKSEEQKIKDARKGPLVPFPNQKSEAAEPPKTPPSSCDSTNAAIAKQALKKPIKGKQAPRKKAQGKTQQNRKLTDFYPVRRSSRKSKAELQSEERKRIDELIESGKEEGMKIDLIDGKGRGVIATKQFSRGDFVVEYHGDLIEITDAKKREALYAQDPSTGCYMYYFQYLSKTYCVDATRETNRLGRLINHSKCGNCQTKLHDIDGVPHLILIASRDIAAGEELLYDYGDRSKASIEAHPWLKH
Description: as §1, with “activity. All HMT reactions were performed as described previously. ref: Proc Natl Acad Sci U S A. 2012 Dec 26;109(52):21360-5.” for “activity.”

[3] = target: T2, G9a (Homo sapiens, UniProt Q96KQ7); assay: HMT panel selectivity: G9a
T2 sequence (Q96KQ7 1-1210): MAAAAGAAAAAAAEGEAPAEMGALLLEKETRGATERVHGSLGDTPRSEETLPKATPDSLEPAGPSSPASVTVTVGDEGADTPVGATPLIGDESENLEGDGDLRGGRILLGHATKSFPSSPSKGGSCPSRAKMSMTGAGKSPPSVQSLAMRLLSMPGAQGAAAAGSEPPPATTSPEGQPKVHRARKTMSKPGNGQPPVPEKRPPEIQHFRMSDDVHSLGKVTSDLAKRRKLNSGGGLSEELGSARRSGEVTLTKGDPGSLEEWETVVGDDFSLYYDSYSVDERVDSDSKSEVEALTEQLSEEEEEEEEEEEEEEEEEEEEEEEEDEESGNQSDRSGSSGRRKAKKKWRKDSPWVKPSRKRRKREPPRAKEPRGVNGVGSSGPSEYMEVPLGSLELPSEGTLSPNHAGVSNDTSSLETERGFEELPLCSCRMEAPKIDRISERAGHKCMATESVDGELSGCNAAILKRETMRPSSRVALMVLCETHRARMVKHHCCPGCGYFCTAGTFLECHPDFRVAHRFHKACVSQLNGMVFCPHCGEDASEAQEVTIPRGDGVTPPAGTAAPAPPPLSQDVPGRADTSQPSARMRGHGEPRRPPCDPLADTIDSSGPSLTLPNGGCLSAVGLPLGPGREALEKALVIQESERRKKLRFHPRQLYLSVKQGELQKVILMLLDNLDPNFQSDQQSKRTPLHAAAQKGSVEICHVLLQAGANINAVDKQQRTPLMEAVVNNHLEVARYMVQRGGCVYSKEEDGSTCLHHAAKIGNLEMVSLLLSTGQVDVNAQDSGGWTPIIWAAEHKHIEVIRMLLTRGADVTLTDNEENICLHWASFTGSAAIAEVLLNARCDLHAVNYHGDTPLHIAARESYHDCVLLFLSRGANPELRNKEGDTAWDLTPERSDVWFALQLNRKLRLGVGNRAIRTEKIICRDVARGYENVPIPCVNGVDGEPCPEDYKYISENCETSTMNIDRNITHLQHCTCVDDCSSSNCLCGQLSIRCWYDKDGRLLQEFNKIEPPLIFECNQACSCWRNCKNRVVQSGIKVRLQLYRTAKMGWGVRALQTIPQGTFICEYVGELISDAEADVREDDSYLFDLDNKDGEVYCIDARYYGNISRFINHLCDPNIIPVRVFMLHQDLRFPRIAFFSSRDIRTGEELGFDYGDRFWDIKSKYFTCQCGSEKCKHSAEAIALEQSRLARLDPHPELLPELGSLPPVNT
Description: as §1, with “activity. All HMT reactions were performed as described previously. ref: Proc Natl Acad Sci U S A. 2012 Dec 26;109(52):21360-5.” for “activity.”

[4] = target: Dot1L (Homo sapiens, UniProt Q8TEK3); assay: HMT panel selectivity: Dot1L
Description: as §1, with “activity. All HMT reactions were performed as described previously. ref: Proc Natl Acad Sci U S A. 2012 Dec 26;109(52):21360-5.” for “activity.”

[5] = target: PRMT1 (Homo sapiens, UniProt Q99873); assay: HMT panel selectivity: PRMT1
Description: as §1, with “activity. All HMT reactions were performed as described previously. ref: Proc Natl Acad Sci U S A. 2012 Dec 26;109(52):21360-5.” for “activity.”

[6] = target: DNMT1 (Homo sapiens, UniProt P26358); assay: HMT panel selectivity: DNMT1
Description: as §1, with “activity. All HMT reactions were performed as described previously. ref: Proc Natl Acad Sci U S A. 2012 Dec 26;109(52):21360-5.” for “activity.”

DNMT1, sequence (P26358 whole entry, species assumed): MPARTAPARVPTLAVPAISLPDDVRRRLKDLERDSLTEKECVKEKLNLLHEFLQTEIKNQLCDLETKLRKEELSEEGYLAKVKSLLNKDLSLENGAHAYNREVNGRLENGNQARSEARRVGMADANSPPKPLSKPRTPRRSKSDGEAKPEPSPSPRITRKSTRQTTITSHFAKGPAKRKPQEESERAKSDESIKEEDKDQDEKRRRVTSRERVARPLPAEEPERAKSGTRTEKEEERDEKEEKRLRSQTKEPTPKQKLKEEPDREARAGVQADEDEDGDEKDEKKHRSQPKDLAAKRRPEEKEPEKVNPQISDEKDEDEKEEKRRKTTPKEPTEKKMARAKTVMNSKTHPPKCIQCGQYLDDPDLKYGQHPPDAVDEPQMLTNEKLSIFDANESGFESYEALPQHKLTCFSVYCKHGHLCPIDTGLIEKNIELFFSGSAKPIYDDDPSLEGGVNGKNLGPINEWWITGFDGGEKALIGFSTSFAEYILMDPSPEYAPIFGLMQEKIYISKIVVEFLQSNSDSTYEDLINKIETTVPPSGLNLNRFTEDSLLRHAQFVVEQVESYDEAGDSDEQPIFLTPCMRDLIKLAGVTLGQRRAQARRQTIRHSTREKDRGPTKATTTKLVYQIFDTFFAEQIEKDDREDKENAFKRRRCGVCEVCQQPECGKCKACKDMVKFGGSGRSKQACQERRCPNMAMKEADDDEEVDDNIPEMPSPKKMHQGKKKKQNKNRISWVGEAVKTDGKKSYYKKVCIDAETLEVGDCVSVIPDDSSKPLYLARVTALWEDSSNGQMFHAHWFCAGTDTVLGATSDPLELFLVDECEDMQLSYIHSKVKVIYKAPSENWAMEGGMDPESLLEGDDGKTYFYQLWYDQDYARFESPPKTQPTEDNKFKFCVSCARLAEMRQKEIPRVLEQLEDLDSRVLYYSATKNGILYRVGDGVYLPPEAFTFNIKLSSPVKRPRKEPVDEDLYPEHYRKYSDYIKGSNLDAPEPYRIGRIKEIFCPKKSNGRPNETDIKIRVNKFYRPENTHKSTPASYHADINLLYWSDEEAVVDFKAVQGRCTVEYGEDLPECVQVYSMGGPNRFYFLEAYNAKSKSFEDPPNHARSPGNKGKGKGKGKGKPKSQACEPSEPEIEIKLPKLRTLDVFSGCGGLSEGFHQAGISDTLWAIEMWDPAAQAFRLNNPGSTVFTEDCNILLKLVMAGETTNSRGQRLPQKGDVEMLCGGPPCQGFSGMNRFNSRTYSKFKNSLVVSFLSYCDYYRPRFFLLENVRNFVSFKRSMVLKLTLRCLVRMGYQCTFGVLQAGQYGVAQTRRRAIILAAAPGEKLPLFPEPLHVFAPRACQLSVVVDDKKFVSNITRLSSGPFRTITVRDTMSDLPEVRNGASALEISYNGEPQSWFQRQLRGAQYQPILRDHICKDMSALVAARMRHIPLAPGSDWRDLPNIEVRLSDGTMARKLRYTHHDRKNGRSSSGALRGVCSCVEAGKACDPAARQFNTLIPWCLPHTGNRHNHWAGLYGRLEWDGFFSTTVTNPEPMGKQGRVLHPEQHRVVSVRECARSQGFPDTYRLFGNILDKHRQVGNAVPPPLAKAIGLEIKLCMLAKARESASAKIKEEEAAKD
Dot1L, sequence (Q8TEK3 whole entry, species assumed): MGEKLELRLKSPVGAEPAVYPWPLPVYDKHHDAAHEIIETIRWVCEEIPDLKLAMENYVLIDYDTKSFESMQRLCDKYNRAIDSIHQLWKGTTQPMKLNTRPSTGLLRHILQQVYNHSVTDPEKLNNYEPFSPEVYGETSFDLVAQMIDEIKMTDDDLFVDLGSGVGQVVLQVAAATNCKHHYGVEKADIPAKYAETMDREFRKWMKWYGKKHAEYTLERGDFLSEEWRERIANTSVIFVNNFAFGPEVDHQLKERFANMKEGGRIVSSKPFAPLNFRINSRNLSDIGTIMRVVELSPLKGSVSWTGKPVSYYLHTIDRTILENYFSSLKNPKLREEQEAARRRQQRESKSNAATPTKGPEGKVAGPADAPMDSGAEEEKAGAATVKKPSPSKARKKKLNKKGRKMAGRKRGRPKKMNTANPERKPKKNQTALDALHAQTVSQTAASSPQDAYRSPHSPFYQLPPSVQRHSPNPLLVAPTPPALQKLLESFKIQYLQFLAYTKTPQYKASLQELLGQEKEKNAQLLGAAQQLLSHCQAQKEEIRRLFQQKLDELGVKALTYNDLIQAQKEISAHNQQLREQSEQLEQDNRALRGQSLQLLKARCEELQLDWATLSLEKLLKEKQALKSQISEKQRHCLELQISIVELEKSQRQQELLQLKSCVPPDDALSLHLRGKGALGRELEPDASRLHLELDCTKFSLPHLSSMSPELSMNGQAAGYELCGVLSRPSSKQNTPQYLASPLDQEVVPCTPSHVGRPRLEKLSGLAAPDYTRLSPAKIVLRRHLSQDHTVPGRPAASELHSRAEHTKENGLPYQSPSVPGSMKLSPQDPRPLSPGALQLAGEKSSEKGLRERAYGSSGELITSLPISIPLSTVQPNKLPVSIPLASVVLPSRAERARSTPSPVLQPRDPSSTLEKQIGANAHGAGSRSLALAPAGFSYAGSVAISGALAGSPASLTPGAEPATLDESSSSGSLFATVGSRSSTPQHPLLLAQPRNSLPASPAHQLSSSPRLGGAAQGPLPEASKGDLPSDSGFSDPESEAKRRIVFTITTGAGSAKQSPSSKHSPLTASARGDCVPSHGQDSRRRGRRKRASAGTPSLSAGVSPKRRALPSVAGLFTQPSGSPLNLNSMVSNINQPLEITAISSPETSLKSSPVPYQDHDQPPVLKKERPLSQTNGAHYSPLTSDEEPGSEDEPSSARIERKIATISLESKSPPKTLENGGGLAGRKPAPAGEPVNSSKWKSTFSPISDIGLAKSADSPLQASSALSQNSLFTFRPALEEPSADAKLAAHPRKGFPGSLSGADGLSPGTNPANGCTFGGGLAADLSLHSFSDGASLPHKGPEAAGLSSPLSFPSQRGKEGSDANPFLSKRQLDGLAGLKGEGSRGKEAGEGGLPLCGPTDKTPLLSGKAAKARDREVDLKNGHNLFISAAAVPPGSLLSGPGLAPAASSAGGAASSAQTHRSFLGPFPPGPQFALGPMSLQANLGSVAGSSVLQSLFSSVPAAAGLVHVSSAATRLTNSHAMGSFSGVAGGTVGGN
PRMT1, sequence (Q99873 whole entry, species assumed): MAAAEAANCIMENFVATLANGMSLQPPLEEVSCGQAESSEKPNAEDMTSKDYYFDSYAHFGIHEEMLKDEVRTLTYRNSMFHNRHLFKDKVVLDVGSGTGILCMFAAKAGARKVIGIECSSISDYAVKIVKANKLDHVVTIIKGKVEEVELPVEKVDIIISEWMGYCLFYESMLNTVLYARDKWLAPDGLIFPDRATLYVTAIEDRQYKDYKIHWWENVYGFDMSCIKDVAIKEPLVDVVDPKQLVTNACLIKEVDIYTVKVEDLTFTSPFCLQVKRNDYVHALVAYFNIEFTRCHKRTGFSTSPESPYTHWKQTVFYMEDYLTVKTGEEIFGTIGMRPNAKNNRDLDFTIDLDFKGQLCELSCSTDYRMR

| SMILES | IC50 [1] | IC50 [2] | IC50 [3] | IC50 [4] | IC50 [5] | IC50 [6] |
| --- | --- | --- | --- | --- | --- | --- |
| COc1cc(-c2cc3n(c(=N)c2C#N)CCc2cc4c(cc2-3)OCO4)ccc1OC(C)C [EED396] | 87 µM | > 100 µM | > 100 µM | > 100 µM | > 100 µM | > 100 µM |
| N#Cc1c2c(c3nncn3c1NCc1ccco1)CN(Cc1ccccc1)CC2 [EED162] | 2.2 µM | > 100 µM | > 100 µM | > 100 µM | > 100 µM | > 100 µM |
| COc1cccc(CC2CC3Cc4c(cccc4OC)CC3N(C)C2)c1 (stereo not shown) [EED210] | – | > 100 µM | > 100 µM | > 100 µM | > 100 µM | > 100 µM |

Continued, values first:

| IC50 [1] | IC50 [2] | IC50 [3] | IC50 [4] | IC50 [5] | IC50 [6] | SMILES |
| --- | --- | --- | --- | --- | --- | --- |
| – | > 100 µM | > 100 µM | > 100 µM | > 100 µM | > 100 µM | COc1ccccc1CN1CC(c2cn(C)c3ccccc23)C(N(C)C)C1 (stereo not shown) [EED709] |
| 99 µM | > 100 µM | > 100 µM | > 100 µM | > 100 µM | > 100 µM | Cc1cc(C)n(-c2cc(N3CCc4ccccc4C3)ccc2[N+](=O)[O-])n1 [EED666] |
